The values that follow come from ChEMBL document CHEMBL1133177, “Application of similarity matrices and genetic neural networks in quantitative structure-activity relationships of 2- or 4-(4-Methylpiperazino)pyrimidines: 5-HT(2A) receptor antagonists” (J Med Chem, 2000).

The target of test [1] is T1, 5-hydroxytryptamine receptor 2A (Rattus norvegicus, UniProt P14842). As to the kind of experiment: Affinity for 5-hydroxytryptamine 2A receptor in rat brain cortex by ability to displace [3H]ketanserin. The class given is tissue-based.
In test [2] the target is T1, 5-hydroxytryptamine receptor 2A. As to the kind of experiment: Affinity 5-hydroxytryptamine 2A receptor of the rat brain cortex was assessed on the basis of their ability to displace [3H]ketanserin.
For test [3] the target is unchanged. Kind of test: (§1) Affinity at 5-hydroxytryptamine 2A receptor of the rat brain cortex was assessed on the basis of their ability to displace [3H]ketanserin.
Test [4] shares this target. The test is described as §1. This is another data set of the same source.

A value given as a limit tells only on which side of the number the result lay.

T1 sequence (P14842 whole entry): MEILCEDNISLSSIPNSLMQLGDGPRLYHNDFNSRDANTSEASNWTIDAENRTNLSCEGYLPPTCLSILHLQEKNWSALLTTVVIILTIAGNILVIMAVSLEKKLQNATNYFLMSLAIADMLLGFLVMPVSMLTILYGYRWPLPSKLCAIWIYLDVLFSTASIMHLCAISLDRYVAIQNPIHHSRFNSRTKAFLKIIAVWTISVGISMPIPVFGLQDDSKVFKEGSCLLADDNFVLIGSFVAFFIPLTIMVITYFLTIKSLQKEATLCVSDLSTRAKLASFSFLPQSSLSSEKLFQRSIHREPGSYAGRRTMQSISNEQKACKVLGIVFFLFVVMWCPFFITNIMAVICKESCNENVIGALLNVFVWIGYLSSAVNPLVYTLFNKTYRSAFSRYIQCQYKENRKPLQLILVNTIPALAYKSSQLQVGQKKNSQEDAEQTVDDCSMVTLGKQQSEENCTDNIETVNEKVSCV

Regarding `CN1CCN(c2nc(-c3ccoc3)cc(-c3cc4ccccc4s3)n2)CC1`, the inhibition constant (Ki) in test [1] was 55 nM.
The same measure, in the same setting: the figure for `CN1CCN(c2nc(-c3ccsc3)cc(-c3cccs3)n2)CC1` is 20.9 nM; for `CN1CCN(c2nc(-c3ccco3)cc(-c3cc4ccccc4o3)n2)CC1` it is 110 nM.
The same measure, in the same setting: then `CN1CCN(c2nc(-c3ccco3)cc(-c3cc4ccccc4s3)n2)CC1`, with 37.2 nM.
For the molecule `CN1CCN(c2nc(Cl)cc(-c3ccoc3)n2)CC1`, the Ki in test [1] is 40.7 nM; in test [2], 41 nM.
As for `Cc1ccc(-c2cc(N3CCN(C)CC3)nc(Cl)n2)cc1`, the inhibitory constant (Ki) was 4270 nM in test [3] and 4220 nM in test [4].
In the case of `CN1CCN(c2nc(-c3ccco3)cc(-c3cccs3)n2)CC1`, in test [1], the affinity corresponds to a Ki of 37.2 nM.
Regarding `CN1CCN(c2cc(-c3ccco3)nc(Cl)n2)CC1`, the inhibitory constant (Ki) is 6030 nM in test [3] and 5960 nM in test [4].
For `CN1CCN(c2cc(-n3ccnc3)ncn2)CC1` the same measures were over 10000 nM and over 10000 nM.
`Cc1c(-c2cccs2)nc(N2CCN(C)CC2)nc1-c1cccs1` had an inhibition constant Ki in test [1] of 17 nM.
As to `CN1CCN(c2cc(-c3cccs3)nc(Cl)n2)CC1`, the Ki was 2690 nM in test [3] and 2720 nM in test [4].
For `CN1CCN(c2nc(Cl)cc(-c3cccs3)n2)CC1`, in that order: 347 nM and 353 nM.
In test [1], `CN1CCN(c2nccc(-c3ccsc3)n2)CC1` showed a Ki of 191 nM.
As for `Cc1ccc(-c2cc(Cl)nc(N3CCN(C)CC3)n2)cc1`, the Ki in test [1] is 575 nM; in test [2], 582 nM.
For `CN1CCN(c2nccc(-n3ccnc3)n2)CC1` the same measures were 380 nM and 384 nM.
`CN1CCN(c2nc(-c3cc4ccccc4o3)cc(-c3cccn3C)n2)CC1` had an inhibition constant (Ki) in test [1] of 135 nM.

Broadly, the Ki is the dissociation constant of the complex between target and ligand, obtained from inhibition or displacement. A low value points to higher affinity.
